According to US20240197666A1, “DITERPENOID COMPOUNDS THAT ACT ON PROTEIN KINASE C (PKC)” (K-Gen Therapeutics, Inc., priority 2021, published 2024):

How the values were obtained:
C1b domain of human PKCε = target: T1, C1b domain of human PKCε (Homo sapiens, UniProt Q02156); assay: biochemical; assay type: binding; conditions: 3H-PDBu competition
T1 construct: Genes encoding C1b domains of human PKCα, δ, ε, θ, and PKD1 (PKCμ) were synthesized; made in house; host or cells: E. coli BL21(DE3)
Summary of the method: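 Ki derived by Cheng-Prusoff from IC50, with each protein batch's measured ^3H-PDBu Kd. Displacement of ^3H-PDBu from E. coli-produced GST-fused C1b domains or full-length human PKC was run 10 min at 37°C plus 20 min on ice, with filter capture and scintillation counting.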

Hela cells = assay: In vitro scratch wound healing assay; assay type: cell-based; conditions: 24h
Procedure: Scratch wound healing assay creates a gap by scratching a confluent monolayer of cells to mimic a wound and then measures the ability of cells to fill up the gap (wound) in the presence of DMSO or test compounds. 1.2-1.5×10^5 Hela cells in 1 mL media RPMI-1640 with 10% FBS were seeded in 24-well plates. Cells were starved for overnight in the same media without FBS when cells became confluent. After starvation, a scratch was made in the middle of the well and the plates were washed three times to remove detached cells. DMSO or different concentrations of compounds were diluted and added to the cells. The assay plates were put into Incucyte S3 and scanned with 4× scanner setting regularly. The imaging results were exported and the wound area was analyzed by ImageJ. Wound healing or closure was calculated by the following formula: wound healing %=(wound area at 0h−wound area at 24h)/wound area 0h*100%. Relative wound healing was calculated by dividing wound healing % of compound treatment to that of DMSO*100%.

human PBMC cells = assay: Cytokine/chemokine gene expression in human PBMC (TaqMan); assay type: cell-based; conditions: 4 h;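 as to Gene Relative Expression CCL2: 2^-ΔΔCt fold change vs DMSO control normalized to 18S and GAPDH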;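 as to Gene Relative Expression GM-CSF: 2^-ΔΔCt fold change vs DMSO control normalized to 18S and GAPDH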;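 as to Gene Relative Expression IFN-α: 2^-ΔΔCt fold change vs DMSO control normalized to 18S and GAPDH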;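 as to Gene Relative Expression IFNγ: 2^-ΔΔCt fold change vs DMSO control normalized to 18S and GAPDH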
Procedure: Each treatment condition was performed in duplicates.

T1 sequence (Q02156 242-292 limits assumed): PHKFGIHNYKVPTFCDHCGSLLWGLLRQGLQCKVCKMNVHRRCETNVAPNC

CC1=C[C@H]2[C@@]3(O)[C@H](C)C[C@]4(OC(=O)[C@@H](N)CCCCCCc5ccccc5)[C@H]([C@@H]3C=C(CO)C[C@]2(O)C1=O)C4(C)C
Ki (C1b domain of human PKCε): 10 to 30 nM
Relative wound healing to control (%) (Hela cells; 3 nM): 162%
Relative wound healing to control (%) (Hela cells; 10 nM): 237%
Relative wound healing to control (%) (Hela cells; 30 nM): 267%
Gene Relative Expression CCL2 (human PBMC cells; 0.01 μM): 1.81
Gene Relative Expression GM-CSF (human PBMC cells; 0.01 μM): 1.00
Gene Relative Expression IFN-α (human PBMC cells; 0.01 μM): 0.73
Gene Relative Expression IFNγ (human PBMC cells; 0.01 μM): 1.46
Gene Relative Expression IL-1β (human PBMC cells; 0.01 μM): 0.38
Gene Relative Expression IL-2 (human PBMC cells; 0.01 μM): 1.32
Gene Relative Expression IL-6 (human PBMC cells; 0.01 μM): 0.57
Gene Relative Expression IL-8 (human PBMC cells; 0.01 μM): 0.44
Gene Relative Expression IL-10 (human PBMC cells; 0.01 μM): 1.59
Gene Relative Expression IL-12p40 (human PBMC cells; 0.01 μM): 0.34
Gene Relative Expression IL-12p70 (human PBMC cells; 0.01 μM): 1.05
Gene Relative Expression IL-13 (human PBMC cells; 0.01 μM): 0.37
Gene Relative Expression IL-18 (human PBMC cells; 0.01 μM): 0.63
Gene Relative Expression ISG15 (human PBMC cells; 0.01 μM): 0.94
Gene Relative Expression MIP1a (CCL3) (human PBMC cells; 0.01 μM): 1.29
Gene Relative Expression MX1 (human PBMC cells; 0.01 μM): 0.77
Gene Relative Expression OAS1 (human PBMC cells; 0.01 μM): 0.85
Gene Relative Expression TNF-α (human PBMC cells; 0.01 μM): 1.34
Gene Relative Expression CCL2 (human PBMC cells; 0.03 μM): 6.53
Gene Relative Expression GM-CSF (human PBMC cells; 0.03 μM): 1.88
Gene Relative Expression IFN-α (human PBMC cells; 0.03 μM): 1.21
Gene Relative Expression IFNγ (human PBMC cells; 0.03 μM): 1.49
Gene Relative Expression IL-1β (human PBMC cells; 0.03 μM): 0.94
Gene Relative Expression IL-2 (human PBMC cells; 0.03 μM): 3.59
Gene Relative Expression IL-4 (human PBMC cells; 0.03 μM): 1.19
Gene Relative Expression IL-6 (human PBMC cells; 0.03 μM): 1.23
Gene Relative Expression IL-8 (human PBMC cells; 0.03 μM): 0.66
Gene Relative Expression IL-10 (human PBMC cells; 0.03 μM): 0.86
Gene Relative Expression IL-12p40 (human PBMC cells; 0.03 μM): 0.38
Gene Relative Expression IL-12p70 (human PBMC cells; 0.03 μM): 0.96
Gene Relative Expression IL-13 (human PBMC cells; 0.03 μM): 5.87
Gene Relative Expression IL-18 (human PBMC cells; 0.03 μM): 0.19
Gene Relative Expression ISG15 (human PBMC cells; 0.03 μM): 0.97
Gene Relative Expression MIP1a (CCL3) (human PBMC cells; 0.03 μM): 1.67
Gene Relative Expression MX1 (human PBMC cells; 0.03 μM): 0.65
Gene Relative Expression OAS1 (human PBMC cells; 0.03 μM): 0.55
Gene Relative Expression TNF-α (human PBMC cells; 0.03 μM): 2.91
Gene Relative Expression CCL2 (human PBMC cells; 0.10 μM): 0.40
Gene Relative Expression GM-CSF (human PBMC cells; 0.10 μM): 21.01
Gene Relative Expression IFN-α (human PBMC cells; 0.10 μM): 0.80
Gene Relative Expression IFNγ (human PBMC cells; 0.10 μM): 11.33
Gene Relative Expression IL-1β (human PBMC cells; 0.10 μM): 3.00
Gene Relative Expression IL-2 (human PBMC cells; 0.10 μM): 4.98
Gene Relative Expression IL-4 (human PBMC cells; 0.10 μM): 2.78
Gene Relative Expression IL-6 (human PBMC cells; 0.10 μM): 6.15
Gene Relative Expression IL-8 (human PBMC cells; 0.10 μM): 0.44
Gene Relative Expression IL-10 (human PBMC cells; 0.10 μM): 0.12
Gene Relative Expression IL-12p70 (human PBMC cells; 0.10 μM): 0.74
Gene Relative Expression IL-13 (human PBMC cells; 0.10 μM): 121.59
Gene Relative Expression IL-18 (human PBMC cells; 0.10 μM): 0.05
Gene Relative Expression ISG15 (human PBMC cells; 0.10 μM): 1.57
Gene Relative Expression MIP1a (CCL3) (human PBMC cells; 0.10 μM): 4.95
Gene Relative Expression MX1 (human PBMC cells; 0.10 μM): 1.06
Gene Relative Expression OAS1 (human PBMC cells; 0.10 μM): 0.71
Gene Relative Expression TNF-α (human PBMC cells; 0.10 μM): 6.52
